Read-outs that look alike come from different tables or passages of the source. Marks after values point to notes of the source that are not given here.
Tests used:
[1] = system: MDA-MB-231 breast cancer cells; experiment: MTT cell viability assay, MDA-MB-231; type: cell-based; conditions: MTT; for IC50: Homo sapiens, MDA-MB-231, 72 hours, Inactive = no measurable activity at 20 μM
Method: (§1) Cell viability of MDA-MB-231 breast cancer cells was evaluated by using the MTT assay in triple replicates in one experiment and repeated for three times (FIG. 3). […] The cells were incubated at 37° C. for a period of 24 hours. Escalating concentrations of IL-6/gp130 inhibitors (e.g., compounds of Formula (A), (B), (C), (D), (E), or (F) including LLM-418, bazedoxifene, LS-28-3, and COMP-D (LS-101-D)) were added in triplicate to the plates in the presence of 10% FBS. After incubation for 72 hours (unless otherwise noted), a stock solution of MTT (0.5 mg/ml) was then added to each well containing the treated cells, followed by incubation at 37° C. for 3 h. After removal of medium, the MTT dye was dissolved with spectrophotometric grade DMSO and the absorbance was read at 570 nm. The IC50 value is determined by interpolation based on the absorbance value halfway between positive and negative controls.

[2] = system: SUM159 breast cancer cells; experiment: MTT cell viability assay, SUM159; type: cell-based; conditions: 72 hours, Inactive = no measurable activity at 20 μM
Method: Cell viability of MDA-MB-231 breast cancer cells was evaluated by using the MTT assay in triple replicates in one experiment and repeated for three times (FIG. 3). MDA-MB-231 SUM159, SUM159 […], MDA-MB-231 breast cancer cells or SUM149 or HCC1937 BRCA mutant breast cancer cells were seeded in 96-well plates at a density of 3,000 cells per well. The cells were incubated at 37° C. for a period of 24 hours. Escalating concentrations of IL-6/gp130 inhibitors (e.g., compounds of Formula (A), (B), (C), (D), (E), or (F) including LLM-418, bazedoxifene, LS-28-3, and COMP-D (LS-101-D)) were added in triplicate to the plates in the presence of 10% FBS. After incubation for 72 hours (unless otherwise noted), a stock solution of MTT (0.5 mg/ml) was then added to each well containing the treated cells, followed by incubation at 37° C. for 3 h. After removal of medium, the MTT dye was dissolved with spectrophotometric grade DMSO and the absorbance was read at 570 nm. The IC50 value is determined by interpolation based on the absorbance value halfway between positive and negative controls.

[3] = system: SUM159 gp130ko breast cancer cells; experiment: MTT cell viability assay, SUM159 gp130ko; type: cell-based; conditions: SUM159, Table 1 batch studies, 72 hours, read-out: IC50 Values in Breast Cancer Cell Lines, SUM159 gp130ko
Method: as §1

[4] = system: MDA-MB-231 Bone Metastatic breast cancer cells; experiment: MTT cell viability assay, MDA-MB-231 Bone Metastatic; type: cell-based; conditions: Homo sapiens, 72 hours
Method: as §1

IL-6 induced p-STAT3 = experiment: Selectivity study, western blot, T47D cells, IL-6 stimulation; type: cell-based; conditions: T47D breast cancer cells, compound 2 hours, then cytokine 30 minutes
Method: (§2) Cells were harvested and lysed in cold radioimmunoprecipitation assay (RIPA) lysis buffer containing proteasome inhibitor cocktail and phosphatase inhibitor cocktail. The protein concentrations were determined using the BCA Protein Assay kit. After adding the loading buffer and boiling at 95° C. for 10 minutes, equivalent amounts of proteins were loaded on and separated by SDS-PAGE, and then were transferred to PVDF membranes. Membranes were probed with primary antibodies (1:1000) against gp130 and GAPDH. Membranes were analyzed using Enhanced Chemiluminescence Plus reagents and either scanned with the Storm Scanner (Amersham Pharmacia Biotech, Inc., Piscataway, NJ) or imaged with ChemiDoc MP imaging system (Bio-Rad, Hercules, CA).
(§3) Inhibition of downstream STAT3 phosphorylation was performed. T47D breast cancer cells, which lack endogenous IL-6, were treated with LLM418-MCBu for 2 hours. Then, cytokine was administered for 30 minutes (IL-6, INF, LIF, or OSM). Western blot conducted afterwards to assess dose-dependent inhibition of IL-6 signaling (or lack thereof) (FIG. 5).

pSTAT3 in TNBC cell line = experiment: pSTAT3 inhibition in TNBC cell line (FIG. 8); type: cell-based; conditions: compound, then cytokine
Method: (§4) FIG. 8 depicts TNBC, BRCA-mutant, and T47D cells stimulated with LLM418-MCBU, then cytokine.
as §2

[5] = system: pSTAT3 in BRCA-mutant cell line; experiment: pSTAT3 inhibition in BRCA-mutant cell line (FIG. 8); type: cell-based; conditions: compound, then cytokine
Method: as §4, §2

pSTAT3 in T47D cell line = experiment: pSTAT3 inhibition in T47D cell line (FIG. 8); type: cell-based; conditions: compound, then cytokine
Method: as §4, §2

[6] = system: HCC1937 BRCA-mutant TNBC cells; experiment: Cell viability, combination with PARP inhibitor talazoparib (FIG. 9); type: cell-based; conditions: LLM418-MCBU in combination with PARP inhibitor talazoparib
Source text: FIG. 9 depicts cell viability of HCC1937 BRCA-mutant TNBC cells treated with LLM418-MCBU and PARP inhibitor talazoparib.

induced p-STAT1 = experiment: Selectivity study, western blot, T47D cells, IFN stimulation; type: cell-based; conditions: T47D breast cancer cells, compound, then cytokine
Method: as §2, §3

LIF induced p-STAT3 = experiment: Selectivity study, western blot, T47D cells, LIF stimulation; type: cell-based; conditions: T47D breast cancer cells, compound, then cytokine
Method: as §2, §3

gp130 [7] = molecular target: T1, gp130 (Homo sapiens, UniProt P40189); experiment: DARTS assay in MDA-MB-231 breast cancer cell lysates; type: binding; conditions: 1:2000 pronase:protein, proteolysis 20 minutes; FIG. 1
T1 construct: endogenous in cells; host or cells: MDA-MB-231 breast cancer cells (RIPA lysate)
T1 sequence (P40189 23-918): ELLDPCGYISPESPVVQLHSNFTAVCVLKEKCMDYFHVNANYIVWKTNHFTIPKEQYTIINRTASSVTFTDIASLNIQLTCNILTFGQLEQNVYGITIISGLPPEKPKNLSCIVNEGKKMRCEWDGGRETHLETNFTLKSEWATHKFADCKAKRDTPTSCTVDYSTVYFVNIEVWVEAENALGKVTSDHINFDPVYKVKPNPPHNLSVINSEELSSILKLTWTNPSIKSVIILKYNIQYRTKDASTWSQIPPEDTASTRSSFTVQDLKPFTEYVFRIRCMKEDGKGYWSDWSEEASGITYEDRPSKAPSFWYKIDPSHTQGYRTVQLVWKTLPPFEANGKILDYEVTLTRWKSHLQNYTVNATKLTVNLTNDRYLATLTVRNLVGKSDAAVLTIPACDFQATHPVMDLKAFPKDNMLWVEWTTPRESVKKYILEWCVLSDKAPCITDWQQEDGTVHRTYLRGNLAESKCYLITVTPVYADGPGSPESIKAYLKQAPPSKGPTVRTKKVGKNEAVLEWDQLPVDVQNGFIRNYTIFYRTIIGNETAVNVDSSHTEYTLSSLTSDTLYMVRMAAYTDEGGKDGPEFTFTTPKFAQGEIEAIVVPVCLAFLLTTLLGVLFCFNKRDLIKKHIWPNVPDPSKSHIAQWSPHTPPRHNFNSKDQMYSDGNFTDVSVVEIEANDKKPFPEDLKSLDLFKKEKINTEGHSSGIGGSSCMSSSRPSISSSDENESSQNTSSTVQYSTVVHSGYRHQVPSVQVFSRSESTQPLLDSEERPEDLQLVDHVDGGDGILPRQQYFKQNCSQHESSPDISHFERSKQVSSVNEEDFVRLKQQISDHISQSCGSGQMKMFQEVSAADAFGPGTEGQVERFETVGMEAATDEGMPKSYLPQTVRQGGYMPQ
Method: as §2
(§5) MDA-MB-231 breast cancer cells or MIAPaCa2 pancreatic cancer cells were lysed in cold radioimmunoprecipitation assay (RIPA) lysis buffer containing proteasome inhibitor cocktail and phosphatase inhibitor cocktail. Then lysates were incubated with escalating concentrations (10-1000 μM) of LS-28-3 or bazedoxifene at room temperature for 1 h. Proteolysis was followed by adding protease pronase solution at a ratio of 1 mg of pronase to 1000 mg (or 2000 mg) of lysate protein for 20 min at room temperature. […] The resulted protein samples were separated by 8% SDS-PAGE gel and analyzed by western blotting. […]

gp130 [8] = molecular target: T1, gp130; experiment: DARTS assay in MIAPaCa2 pancreatic cancer cell lysates; type: binding; conditions: 1:2000 pronase:protein, proteolysis 20 minutes; FIG. 2
Method: as §2, §5

[9] = Table 1 batch studies, read-out: IC50 Values in Breast Cancer Cell Lines, MDA-MB-231
[10] = Table 3 batch studies (independent from Table 1), read-out: MDA-MB-231 IC50
[11] = SUM159, Table 1 batch studies, read-out: IC50 Values in Breast Cancer Cell Lines, SUM159
[12] = SUM159, Table 3 batch studies (independent from Table 1), read-out: SUM159 IC50
[13] = MDA-MB-231, Table 1 batch studies, read-out: IC50 Values in Breast Cancer Cell Lines, MDA-MB-231 Bone Metastatic
[14] = MDA-MB-231, Table 3 batch studies (independent from Table 1), read-out: MDA-MB-231 Bone Metastatic IC50

| Compound | IC50 [1, 9] | IC50 [1, 10] | IC50 [2, 11] | IC50 [2, 12] | IC50 [3] | IC50 [4, 13] | IC50 [4, 14] | Inhibition of IL-6 induced p-STAT3 (IL-6 induced p-STAT3) | Inhibition of IFN-7 induced p-STAT1 (induced p-STAT1) | also measured |
| --- | --- | --- | --- | --- | --- | --- | --- | --- | --- | --- |
| O=C(Nc1ccccc1-c1ccn(CC2CCC2)n1)c1ccc(OCCN2CCCCC2)cc1 [LLM418-MCBu, N-(2-(1-(cyclobutylmethyl)-1H-pyrazol-3-yl)phenyl)-4-(2-(piperidin-1-yl)ethoxy)benzamide] | 18.5 µM | 18.5 µM | 10.5 µM | 10.5 µM | 13.9 µM | 7.3 µM | 7.3 µM | inhibited IL-6 selectively in a dose-dependent manner | – | Inhibition of IL-6 induced p-STAT3 (IL-6 induced p-STAT3; listed as LLM418-MCBU): selectively inhibits IL-6 induced p-STAT3; Inhibition of pSTAT3, TNBC cell line (pSTAT3 in TNBC cell line): inhibits pSTAT3; Inhibition of pSTAT3, BRCA-mutant cell line [5]: inhibits pSTAT3; Inhibition of pSTAT3, T47D cell line (pSTAT3 in T47D cell line): inhibits pSTAT3; CI (synergy in inhibiting cell viability) [6]: < 1.0 |
| CCn1ccc(-c2ccccc2NC(=O)c2ccc(OCCN3CCCCC3)cc2)n1 [LLM418-Et, N-(2-(1-ethyl-1H-pyrazol-3-yl)phenyl)-4-(2-(piperidin-1-yl)ethoxy)benzamide] | 17.5 µM | 17.5 µM | 13.5 µM | 17.4 µM | 18.2 µM | 16.8 µM | 16.8 µM | inhibit both IL-6 induced p-STAT3 and IFN-7 induced p-STAT1 | inhibit both IL-6 induced p-STAT3 and IFN-7 induced p-STAT1 | – |
| O=C(Nc1ccccc1-c1ccn(C2CCC2)n1)c1ccc(OCCN2CCCCC2)cc1 [LLM418-CBU, N-(2-(1-cyclobutyl-1H-pyrazol-3-yl)phenyl)-4-(2-(piperidin-1-yl)ethoxy)benzamide] | 49.7 µM | 30.1 µM | 5.9 µM | 15.1 µM | 16.1 µM | 11.8 µM | 21.1 µM | inhibits IL-6 induced p-STAT3 | also inhibits IFN-7 induced p-STAT1 | Inhibition of LIF induced p-STAT3 (LIF induced p-STAT3): also inhibits |
| CC(C)[C@H]1COC(=O)N1c1ccc(C(=O)Nc2cccc(-c3cc[nH]n3)c2)cc1 [LS-28-3, (S)—N-(3-(1H-pyrazol-3-yl)phenyl)-4-(4-isopropyl-2-oxooxazolidin-3-yl)benzamide] | – | – | – | – | – | – | – | – | – | Percent cells remaining after treatment with 10 μM compound, MDA-MB-231 ([1]; Table 1 batch studies): 88%***; Percent cells remaining after treatment with 10 μM compound, MDA-MB-231 ([1]; Table 3 batch studies): 88%***; IC50 Values in Breast Cancer Cell Lines, SUM159 ([2]; Table 1 batch studies): Inactive; SUM159 IC50 ([2]; Table 3 batch studies (independent from Table 1)): Inactive; Binding to gp130 (protection from pronase proteolysis), MDA-MB-231 lysates (gp130 [7]): showed direct binding to gp130; Binding to gp130 (protection from pronase proteolysis), MIAPaCA2 lysates (gp130 [8]): showed direct binding to gp130 |

From patent US20240246943A1, “MULTIFACETED APPROACH TO NOVEL INTERLEUKIN-6 INHIBITORS” (UNIVERSITY OF FLORIDA RESEARCH FOUNDATION, INCORPORATED, priority 2021, published 2024)
